Test results taken from patent publication US9321804B2, “Synthesis and use of anti-tumor drug LQC-Y” (Beijing University of Chinese Medicine, priority 2011, dated 2016).
“Also recorded” adds a separate entry of the source.

Key:
[1] = tested on: Human hepatoma carcinoma cells Bel7402; experiment: Proliferation of human hepatoma carcinoma cells Bel7402 by MTT; format: cell-based; details: 40 μg/ml
[2] = tested on: Human hepatoma carcinoma cells Bel7402; experiment: as above; format: cell-based; details: for 24 h inhibition ratio (%): Bel7402 cells; for inhibiting effect on the proliferation of Bel7402 cells: cultured in vitro, 10-40 μg/ml
Protocol: Human hepatoma carcinoma cells Bel7402 were recovered and subcultured using a culture flask. The preparation of the experiment was started when the cell growth entered into the exponential growth phase. The cells were then digested using pancreatic enzyme which had been filtrated at an increased pressure to prepare the cell suspension. After that the suspension was dyed for 3 min with 0.4% trypan blue. Then a blood cell counting plate was used to count the living cells which were not dyed and the dead cells which were dyed to blue. The number of the living cells identified by trypan blue was more than 98%.
Three kinds of cells which were in the exponential growth phase were inoculated at the density of 1×10^4/ml, to a 96-well plate, 200 μl for each well. Then the plate was put in a 37° C. 5% CO2 incubation box to be cultured for 24 h. The cultivation liquid was sucked away and 200 μl LQC-Y solutions of different concentrations were added thereinto (prepared with DMEM cultivation liquid containing 4% calf serum and the final concentration of which respectively were 10 μg, 20 μg, 40 μg), 4 parallel wells for each concentration. Supernatant cultivation liquid 100 μl was sucked away carefully from each well after being cultured for 24 h and 48 h, and MTS 20 μl was added into each well and homogeneously mixed. The resultant liquid was cultured in a 37° C. 5% CO2 incubation box for a further 1 h. An enzyme-labeling quantitative instrument was used to measure the absorbance at 492 nm. The experiment was repeated for 3 times and then an inhibition ratio was calculated.
The inhibition ratio of cell proliferation (%)=[(average OD value of control group-average OD value of the administration group)/average OD value of control group]×100%

[3] = tested on: S180 sarcoma of mice; experiment: Tumor inhibiting effect of LQC-Y3 on tumor bearing S180 mice
Protocol: The S180 mice that had been inoculated for 7 days were killed by breaking the neck thereof and ascites was taken from the mice respectively in an aseptic environment and the ascites was washed using RPMI1640 culture medium for 2 times and then made into a 2×10^7/ml cell suspension using aseptic physiological saline. Then the obtained S180 cell suspension was inoculated hypodermically at the right axillary of mice, 0.1 ml for each mouse and 50 mice total, to establish the solid tumor model.
60 mice were divided into 2 categories, including 6 groups, according to the random number table method, i.e. normal control group of the first category, and S180 solid tumor groups of the second category which included positive (cyclophosphamide) control group, negative control group, small dosage group, middle dosage group and large dosage group, 10 mice for each group. The experiment was repeated for 3 times.
LQC-Y3 was prepared using 0.5% CMC-Na. The dosage of the small dosage group was 75 mg/Kg, the dosage of the middle dosage group was 150 mg/Kg, and the dosage of the large dosage group was 300 mg/kg. Equal volume of 0.5% CMC-Na was injected into the mice of the negative control group and cyclophosphamide injection 0.02 g/(Kg.d) was injected into the mice of the positive control group. These medicines were administrated 0.1 ml per mouse by intraperitoneal injection every the other day continuously for 15 days. During this period, the common behavior, hair, excrement and so on were observed daily. The mice that had been inoculated with S180 by hypodermic inoculation were killed by breaking the neck thereof after 24 h after the last administration and the tumor, liver and spleen were then taken.
The weight of the solid tumor group mice were measured after all the administration was finished and then the mice were killed. The spleens and the livers thereof were weighed by an electronic balance. The spleen index was calculated as the spleen weight of a mouse (mg)/the body weight of a mouse (g) and the liver index was calculated as the liver weight of a mouse […]/the body weight of a mouse (g).
The solid tumor negative control group mice were weighed on the next day after the administration was finished (the eyeballs of the mice were removed to bleed and the serum was collected for subsequent experimental use). Then the mice were killed by breaking the neck thereof. The tumor tissues were taken out and weighed by an electronic balance to calculate the tumor inhibiting ratio.
All the data were statistically analyzed using SPSS11.0 software pack. The comparison of the enumeration data was carried out with X^2 test. P<0.05 had statistical significance.

[4] = tested on: ICR white mice; experiment: Acute toxic experiment of mice by oral administration; format: in vivo; set-up: key to Animal reaction in 14 days after the administration: Appearance / Animal reaction in 14 days after the administration: Behavior / Animal reaction in 14 days after the administration: Hair / Animal reaction in 14 days after the administration: Respiration / Animal reaction in 14 days after the administration: Posture / Animal reaction in 14 days after the administration: Reaction: ✓ means normal; details: for Animal reaction in 14 days after the administration: Death: 10 animals; for Animal reaction in 14 days after the administration: Death / Animal reaction in 14 days after the administration: Appearance / Animal reaction in 14 days after the administration: Behavior / Animal reaction in 14 days after the administration: Hair / Animal reaction in 14 days after the administration: Posture / Animal reaction in 14 days after the administration: Reaction / Animal reaction in 14 days after the administration: Respiration: oral 3 x 2000 mg/kg (6000 mg/kg) in one day
Protocol: 1. Experimental Project: Acute Toxic Experiment of Mice by Oral Administration
ICR white mice (half female and half male, 18-22 g, experiment animal certificate No.: SCXK (Jing) 2006-0009);
LQC-Y3 (white powder (self prepared); and LQC-Y3 5000 mg was dissolved into 0.5% sodium carboxymethyl cellulose 100 ml and then suspended by supersonic wave. The suspension was used in situ).
The qualified animals were quarantined and weighed before the administration. Then the animals were divided into groups randomly by weight. The intragastric administration tool for mice was used to carry out the intragastric administration. The mice were fasted but not water-deprived (continuously for 14 h) overnight before being administrated. The mice were administrated at 9:00 AM for the first time (2000 mg/kg) on the present administration day and observed continuously for 1 h. The mice were administrated for the second time (2000 mg/kg) at an interval of 6 h since the first administration and observed continuously for 1 h. The mice were administrated for the third time (2000 mg/kg) at an interval of 6 h since the second administration, observed continuously for 1 h and then the mice were fed.

[5] = tested on: small vessel growth of CAM model; experiment: Effect of LQC-Y on tumor angiogenesis using CAM method (small vessel count); format: in vivo, chicken; details: compared with the blank group
Protocol: Aseptic gelatin sponge, which was made into a wafer having a diameter of 5 mm by a hole-puncher in advance, was used as sample carrier. The prepared derivatives of bromotetramethylpyrazine series were added thereinto in an aseptic environment and different dosage groups were set according to the difference of the molecular weight of each medicine, including 10 μg/chicken embryo, 20 μg/chicken embryo and 40 μg/chicken embryo. The 0.9% physiological saline was used in a blank group. The samples were air-dried in an aseptic environment.
A hatching egg after disinfection was put into a 37° C. incubation box with air sac upward until the seventh day of incubation. The egg embryo was disinfected using alcohol at a super clean bench, and then a small hole was drilled at the top of the egg embryo using a dental drill, and the nearby egg shell and shell membrane were removed carefully to form a opening with the size of about 1.2 cm×1.2 cm. […]
After the incubation, the transparent tape blocking the chicken embryo air sac was softly removed with a nipper. […] The effect of the compounds on angiogenesis was evaluated by the count analytic method using the numbers of great vessels, medium vessels and small vessels arranged radially around the carrier. […]

[6] = S180 Balb/C mice, large dosage 300 mg/kg i.p. every other day, 15 days
[7] = S180 Balb/C mice, middle dosage 150 mg/Kg i.p. every other day, 15 days
[8] = S180 Balb/C mice, small dosage 75 mg/Kg i.p. every other day, 15 days

SMILES: Cc1nc(C)c(COC(=O)C23CCC(C)(C)CC2C2=CCC4C5(C)CCC(O)C(C)(C)C5CCC4(C)C2(C)CC3)nc1C (centres unmarked) [LQC-Y3, (3,5,6-trimethyl pyrazine-2-yl)methyl-10-hydroxy-2,2,6a,6b,9,9,12a-heptamethyl-1,2,3,4,4a,5,6,6a,6b,7,8,8a,9,10,11,12,12a,12b,13,14b-eicosahydropicene-4a-carboxylate]
- 24 h inhibition ratio (%) [1]: 99.16%
- 24 h inhibition ratio (%) ([2]; 10 μg/ml): 34.53%
- 24 h inhibition ratio (%) ([2]; 20 μg/ml): 89.07%
- inhibiting effect on the proliferation of Bel7402 cells [2]: evident inhibiting effect
- effect on the growth of the S180 mice sarcoma ([3]; 75-300 mg/kg i.p.): can Notably Inhibit the Growth; also recorded: inhibit the growth of S180 tumor effectively
- Tumor inhibiting ratio (%) [3, 6]: 50.0%
- Tumor weight (g) [3, 6]: 0.47 ± 0.23^(3) g
- Tumor inhibiting ratio (%) [3, 7]: 37.23%
- Tumor weight [3, 7]: 0.59 ± 0.28 g
- Tumor inhibiting ratio (%) [3, 8]: 33.98%
- Tumor weight [3, 8]: 0.63 ± 0.30 g
- effect on the growth of the S180 sarcoma mice's weight ([3]; mouse, in vivo): no effect
- toxic reaction ([4]; mice, maximum dosage of 6000 mg/kg per day, oral, observed continuously for 14 days, 6000 mg/kg/day): No toxic reaction; also recorded: no toxic or side effect
- Animal reaction in 14 days after the administration: Death ([4]; ♀ ICR mice): 0
- Animal reaction in 14 days after the administration: Appearance ([4]; ♀ ICR mice): ✓
- Animal reaction in 14 days after the administration: Behavior ([4]; ♀ ICR mice): ✓
- Animal reaction in 14 days after the administration: Hair ([4]; ♀ ICR mice): ✓
- Animal reaction in 14 days after the administration: Posture ([4]; ♀ ICR mice): ✓
- Animal reaction in 14 days after the administration: Reaction ([4]; ♀ ICR mice): ✓
- Animal reaction in 14 days after the administration: Respiration ([4]; ♀ ICR mice): ✓
- Animal reaction in 14 days after the administration: Death ([4]; ♂ ICR mice): 0
- Animal reaction in 14 days after the administration: Appearance ([4]; ♂ ICR mice): ✓
- Animal reaction in 14 days after the administration: Behavior ([4]; ♂ ICR mice): ✓
- Animal reaction in 14 days after the administration: Hair ([4]; ♂ ICR mice): ✓
- Animal reaction in 14 days after the administration: Posture ([4]; ♂ ICR mice): ✓
- Animal reaction in 14 days after the administration: Reaction ([4]; ♂ ICR mice): ✓
- Animal reaction in 14 days after the administration: Respiration ([4]; ♂ ICR mice): ✓

SMILES: COc1cc(/C=C/C(=O)CC(=O)/C=C/c2ccc(OCc3nc(C)c(C)nc3C)c(OC)c2)ccc1OCc1nc(C)c(C)nc1C [LQC-Y8, (1E,6E)-1,7-bis(3-methoxy-4-((3,5,6-trimethylpyrazine-2-yl)methoxy)phenyl)heptyl-1,6-diene-3,5-diketone]
- vessel growth inhibiting effect [5]: significant inhibiting effect; also recorded: magnificent inhibiting effect
- 24 h inhibition ratio (%) [1]: 54.07%
- 24 h inhibition ratio (%) ([2]; 10 μg/ml): 39.31%
- 24 h inhibition ratio (%) ([2]; 20 μg/ml): 44.58%
- inhibiting effect on the proliferation of Bel7402 cells [2]: evident inhibiting effect
